Patent publication US9393221B2, “Methods and compounds for reducing intracellular lipid storage” (THE GENERAL HOSPITAL CORPORATION, priority 2011, dated 2016)
Structures can show the parent of a compound that is named as a salt. Square brackets hold non-standard residues; d marks the D form. Peptide text beside a SMILES is read from it. * marks the point of attachment. Sta = CC(C)C[C@H](N)[C@@H](O)CC(=O)O; Isovaleryl = CC(C)CC(=O)*

Tested on: ATGL-KO iPSCs
Assay: High throughput iPSC chemical screening, Oil Red O (ORO) lipid accumulation; as to Z-score: test concentration or dose not given here
Assay type: cell-based, mouse
Conditions: not given

Structure (SMILES)	Z-score
CC(N)C(O)c1ccccc1 (centres unmarked) [Phenylpropanolamine hydrochloride]	0.2625
C[n+]1ccccc1/C=N/O [Pralidoxime chloride]	1.281
CC(C)c1cccc(C(C)C)c1O [Propofol]	−0.9649

Same assay, conditions: glycolytic switch compounds

Structure (SMILES)	Rank in normalized ORO score from screen
[H]/N=C(/N)N/C(=N/[H])NCCc1ccccc1 [Phenformin hydrochloride]	524
CC(COc1ccccc1)N(CCCl)Cc1ccccc1 (centres unmarked) [Phenoxybenzamine hydrochloride]	702
O=c1[nH]c2ccccc2n1C1CCN(CCCC(c2ccc(F)cc2)c2ccc(F)cc2)CC1 [Pimozide]	330
CCN1CCCC(OC(=O)C(c2ccccc2)c2ccccc2)C1 (centres unmarked) [Piperidolate hydrochloride]	449
CC(=O)[C@H]1CC[C@H]2[C@@H]3CC=C4C[C@@H](O)CC[C@]4(C)[C@H]3CC[C@]12C [Pregnenolone]	924

Same assay, conditions: normalized ORO level vs DMSO-treated cells; compound present during 7 days differentiation, 96-well; negative = decrease in lipid accumulation

Structure (SMILES)	Z-score
N=C(N)c1ccc(OCCCCCOc2ccc(C(=N)N)cc2)cc1 [Pentamidine isethionate]	14.9126
O=C(O)CN(CCN(CC(=O)O)CC(=O)O)CCN(CC(=O)O)CC(=O)O [Pentetic acid]	0.9077
C[N+]1(CCCCC[N+]2(C)CCCC2)CCCC1.O=C([O-])C(O)C(O)C(=O)O.O=C([O-])C(O)C(O)C(=O)O [Pentolinium bitartrate]	−0.9629
CC(=O)CCCCn1c(=O)c2c(ncn2C)n(C)c1=O [Pentoxifylline]	−1.1547
C1CCc2nnnn2CC1 [Pentylenetetrazole]	0.6653
CC(C)CC(=O)N[C@H](C(=O)N[C@H](C(=O)N[C@@H](CC(C)C)[C@@H](O)CC(=O)N[C@@H](C)C(=O)N[C@@H](CC(C)C)[C@@H](O)CC(=O)O)C(C)C)C(C)C [Pepstatin A] (Isovaleryl-VV[Sta]A[Sta]-OH)	1.261
CCCN1C[C@H](CSC)C[C@@H]2c3cccc4[nH]cc(c34)C[C@H]21 [Pergolide mesylate]	−0.3289
OCCN1CCN(CCCN2c3ccccc3Sc3ccc(Cl)cc32)CC1 [Perphenazine]	−1.5218
CCOc1ccc(NC(C)=O)cc1 [Phenacetin]	0.5
Nc1ccc(/N=N/c2ccccc2)c(N)n1 [Phenazopyridine hydrochloride]	−0.2483
NNCCc1ccccc1 [Phenelzine sulfate]	0.6672
CC(Oc1ccccc1)C(=O)N[C@@H]1C(=O)N2[C@@H]1SC(C)(C)[C@@H]2C(=O)O (some centres unmarked) [Phenethicillin potassium salt]	−0.0851
[H]/N=C(/N)N/C(=N/[H])NCCc1ccccc1 [Phenformin hydrochloride]	−0.2777
O=C1c2ccccc2C(=O)C1c1ccccc1 [Phenindione]	0.2654
CN(C)CCC(c1ccccc1)c1ccccn1 (centres unmarked) [Pheniramine maleate]	0.3153
CC(COc1ccccc1)N(CCCl)Cc1ccccc1 (centres unmarked) [Phenoxybenzamine hydrochloride]	0.2031
CN1C(=O)CC(c2ccccc2)C1=O (centres unmarked) [Phensuximide]	0.02844
Cc1ccc(N(CC2=NCCN2)c2cccc(O)c2)cc1 [Phentolamine hydrochloride]	0.3245
O=C(O)c1ccccc1C(=O)Nc1ccc(S(=O)(=O)Nc2nccs2)cc1 [Phthalylsulfathiazole]	−1.0074
COc1ccc(C(=O)NCc2cccnc2)cc1C(=O)NCc1cccnc1 [Picotamide monohydrate]	−1.2123
C=C(C)[C@@H]1[C@H]2OC(=O)[C@@H]1[C@]1(O)C[C@H]3O[C@]34C(=O)O[C@H]2[C@]14C [Picrotoxinin]	−0.1703
CC[C@@H]1C(=O)OC[C@@H]1Cc1cncn1C [Pilocarpine nitrate]	−0.2819
CN1CCC(=C2c3ccccc3Sc3ccccc32)CC1 [Pimethixene maleate]	−0.4872
O=c1[nH]c2ccccc2n1C1CCN(CCCC(c2ccc(F)cc2)c2ccc(F)cc2)CC1 [Pimozide]	−0.7483
CC(N/C(=N\C#N)Nc1ccncc1)C(C)(C)C (centres unmarked) [Pinacidil]	0.3162

Structure (SMILES)	Z-score
CC(C)NCC(O)COc1cccc2[nH]ccc12 (centres unmarked) [Pindolol]	0.03656
CCn1cc(C(=O)O)c(=O)c2cnc(N3CCNCC3)nc21 [Pipemidic acid]	−1.4165
CC[N+]1(C)CCCC(OC(=O)C(O)(c2ccccc2)c2ccccc2)C1 (centres unmarked) [Pipenzolate bromide]	−1.06
CC(=O)c1ccc2c(c1)N(CCCN1CCC(CCO)CC1)c1ccccc1S2 [Piperacetazine]	−0.4798
CCN1CCN(C(=O)N[C@@H](C(=O)N[C@@H]2C(=O)N3[C@@H]2SC(C)(C)[C@@H]3C(=O)O)c2ccccc2)C(=O)C1=O [Piperacillin sodium salt]	−0.9149
CCN1CCCC(OC(=O)C(c2ccccc2)c2ccccc2)C1 (centres unmarked) [Piperidolate hydrochloride]	−0.4895
O=C(/C=C/C=C/c1ccc2c(c1)OCO2)N1CCCCC1 [Piperine]	1.588
COc1cc(/C=C/C(=O)N2CCC=CC2=O)cc(OC)c1OC [Piperlongumine]	16.6479
NC(=O)CN1CCCC1=O [Piracetam]	0.8038
CN1CCN(CC(=O)N2c3ccccc3C(=O)Nc3cccnc32)CC1 [Pirenzepine dihydrochloride]	−1.096
NS(=O)(=O)c1cc(C(=O)O)cc(N2CCCC2)c1Oc1ccccc1 [Piretanide]	0.2521
c1cnc(N2CCN(Cc3ccc4c(c3)OCO4)CC2)nc1 [Piribedil hydrochloride]	−1.3522
CCn1cc(C(=O)O)c(=O)c2cnc(N3CCCC3)nc21 [Piromidic acid]	0.2604
CN1C(C(=O)Nc2ccccn2)=C(O)c2ccccc2S1(=O)=O [Piroxicam]	0.7254
CC(C)(C)C(=O)OCOC(=O)[C@@H]1N2C(=O)[C@@H](NC(=O)[C@H](N)c3ccccc3)[C@H]2SC1(C)C [Pivampicillin]	−1.1929
CC(C)(C)C(=O)OCOC(=O)[C@@H]1N2C(=O)[C@@H](/N=C/N3CCCCCC3)[C@H]2SC1(C)C [Pivmecillinam hydrochloride]	−0.219
COc1cc([C@@H]2c3cc4c(cc3[C@H](O)[C@H]3COC(=O)[C@H]23)OCO4)cc(OC)c1OC [Podophyllotoxin]	46.4771
CC(=O)Nc1ccc(OCC(O)CNC(C)C)cc1 (centres unmarked) [Practolol]	−0.3373
CCCCOc1ccc(OCCCN2CCOCC2)cc1 [Pramoxine hydrochloride]	0.5195
O=C(C1CCCCC1)N1CC(=O)N2CCc3ccccc3C2C1 (centres unmarked) [Praziquantel]	−0.5159
COc1cc2nc(N3CCN(C(=O)c4ccco4)CC3)nc(N)c2cc1OC [Prazosin hydrochloride]	0.6597
CCOC(=O)O[C@]1(C(=O)COC(=O)CC)CC[C@H]2[C@@H]3CCC4=CC(=O)C=C[C@]4(C)[C@H]3[C@@H](O)C[C@@]21C [Prednicarbate]	−0.9408
C[C@]12C=CC(=O)C=C1CC[C@@H]1[C@@H]2[C@@H](O)C[C@@]2(C)[C@H]1CC[C@]2(O)C(=O)CO [Prednisolone]	−0.8986
C[C@]12C=CC(=O)C=C1CC[C@@H]1[C@@H]2C(=O)C[C@@]2(C)[C@H]1CC[C@]2(O)C(=O)CO [Prednisone]	0.05393
CC(=O)[C@H]1CC[C@H]2[C@@H]3CC=C4C[C@@H](O)CC[C@]4(C)[C@H]3CC[C@]12C [Pregnenolone]	1.076

Structure (SMILES)	Z-score
CCCNC(C)C(=O)Nc1ccccc1C (centres unmarked) [Prilocaine hydrochloride]	−1.2624
COc1cc(NC(C)CCCN)c2ncccc2c1 (centres unmarked) [Primaquine diphosphate]	5.51
CCC1(c2ccccc2)C(=O)NCNC1=O [Primidone]	−0.0045
CCCC(C(=O)OCCN(CC)CC)(c1ccccc1)c1ccccc1 [Proadifen hydrochloride]	−1.1876
CCCN(CCC)S(=O)(=O)c1ccc(C(=O)O)cc1 [Probenecid]	0.754
CC(C)(Sc1cc(C(C)(C)C)c(O)c(C(C)(C)C)c1)Sc1cc(C(C)(C)C)c(O)c(C(C)(C)C)c1 [Probucol]	1.626
CCN(CC)CCNC(=O)c1ccc(N)cc1 [Procainamide hydrochloride]	−0.2319
CCN(CC)CCOC(=O)c1ccc(N)cc1 [Procaine hydrochloride]	−0.5215
CNNCc1ccc(C(=O)NC(C)C)cc1 [Procarbazine hydrochloride]	1.675
CN1CCN(CCCN2c3ccccc3Sc3ccc(Cl)cc32)CC1 [Prochlorperazine dimaleate]	1.82
OC(CCN1CCCC1)(c1ccccc1)C1CCCCC1 (centres unmarked) [Procyclidine hydrochloride]	−0.6071
CC(=O)[C@H]1CC[C@H]2[C@@H]3CCC4=CC(=O)CC[C@]4(C)[C@H]3CC[C@]12C [Progesterone]	2.344
CCCN(CCC)C(=O)C(CCC(=O)O)NC(=O)c1ccccc1 (centres unmarked) [Proglumide]	0.1235
[H]/N=C(\N/C(=N/[H])Nc1ccc(Cl)cc1)NC(C)C [Proguanil hydrochloride]	16.0329
CN(C)CCCN1c2ccccc2Sc2ccccc21 [Promazine hydrochloride]	0.01386
CC(CN1c2ccccc2Sc2ccccc21)N(C)C (centres unmarked) [Promethazine hydrochloride]	−1.4251
CC(C)NCC(O)c1ccc2ccccc2c1 (centres unmarked) [Pronethalol hydrochloride]	−0.9002
CCCNCC(O)COc1ccccc1C(=O)CCc1ccccc1 (centres unmarked) [Propafenone hydrochloride]	−0.6438
CC(C)[N+](C)(CCOC(=O)C1c2ccccc2Oc2ccccc21)C(C)C [Propantheline bromide]	−0.9862
CCCOc1ccc(C(=O)OCCN(CC)CC)cc1N [Proparacaine hydrochloride]	0.9367
CC[N+](C)(CC)CCC[n+]1c(-c2ccccc2)c2cc(N)ccc2c2ccc(N)cc21.[I-].[I-] [Propidium iodide]	4.014
CCCOc1cc(N)ccc1C(=O)OCCN(CC)CC [Propoxycaine hydrochloride]	−0.3049
CC(C)NCC(O)COc1cccc2ccccc12 (centres unmarked) [Propranolol hydrochloride]	2.05
CCCc1cc(=O)[nH]c(=S)[nH]1 [Propylthiouracil]	−0.0857
C[C@@H]1O[C@@H](O[C@@H]2C=C3CC[C@@H]4[C@H](CC[C@]5(C)[C@@H](c6ccc(=O)oc6)CC[C@]45O)[C@@]3(C)CC2)[C@H](O)[C@H](O)[C@H]1O [Proscillaridin A]	−1.0698
